Results reported in paper PMC7380166, “How to Study the Metabolism of New Psychoactive Substances for the Purpose of Toxicological Screenings—A Follow-Up Study Comparing Pooled Human Liver S9, HepaRG Cells, and Zebrafish Larvae” (Frontiers in Chemistry, 2020).

Columns and labels:
[1] = system: zebrafish larvae; experiment: Zebrafish larvae exposure, metabolite identification by LC-HRMS/MS; settings: for Absolute peak area, Zebrafish larvae [25 μM]: 25 μM 4F-MDMB-BINACA in medium, larvae 4 dpf, larvae extract, one replicate of n = 3, n.d. = not detected
[2] = target: T1, FMO3 (Homo sapiens, UniProt P31513); experiment: Monooxygenases activity screening, FMO3; assay type: in vitro ADME; design: key: +, detected; –: −, not detected; settings: 25 μM 4F-MDMB-BINACA, 0.25 mg protein/ml, 30 min, 37°C, duplicate
T1 construct: purchased Corning; host or cells: baculovirus-transfected insect cell microsomes (Supersomes)
T1 sequence (P31513 1-532): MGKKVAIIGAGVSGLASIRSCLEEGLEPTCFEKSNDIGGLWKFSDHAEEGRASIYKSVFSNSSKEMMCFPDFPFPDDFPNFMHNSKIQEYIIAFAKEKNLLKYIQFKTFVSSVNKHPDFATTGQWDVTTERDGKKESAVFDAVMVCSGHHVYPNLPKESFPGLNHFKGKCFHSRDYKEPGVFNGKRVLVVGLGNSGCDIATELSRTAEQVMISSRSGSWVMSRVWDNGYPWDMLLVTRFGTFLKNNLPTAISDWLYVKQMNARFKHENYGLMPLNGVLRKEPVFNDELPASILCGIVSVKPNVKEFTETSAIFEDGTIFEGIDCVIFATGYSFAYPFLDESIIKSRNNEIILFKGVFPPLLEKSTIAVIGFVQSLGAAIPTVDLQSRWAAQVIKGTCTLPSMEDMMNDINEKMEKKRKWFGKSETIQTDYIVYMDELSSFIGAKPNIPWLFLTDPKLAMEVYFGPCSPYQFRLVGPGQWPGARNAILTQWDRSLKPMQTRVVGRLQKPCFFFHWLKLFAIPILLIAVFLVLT
Procedure: (§1) According to an established protocol (Wagmann et al., [2016]), the final volume per reaction tube was 50 μl with a final 4F-MDMB-BINACA concentration of 25 μM and enzyme concentrations of 50 pmol/ml for CYP1A2, CYP2A6, CYP2B6, CYP2C8, CYP2C9, CYP2C19, CYP2D6, CYP2E1, CYP3A4, and CYP3A5, respectively, or 0.25 mg protein/ml for FMO3. Furthermore, the reaction mixture contained 90 mM phosphate buffer (pH 7.4), superoxide dismutase (200 U/ml), isocitrate (5 mM), MgCl2 (5 mM), isocitrate dehydrogenase (0.5 U/ml), and NADP^+ (1.2 mM). The phosphate buffer was replaced with Tris buffer (90 mM) for incubations with CYP2A6 and CYP2C9 according to the manufacturer's recommendation. All incubations were performed at 37°C for 30 min and terminated by adding 50 μl of ice-cold acetonitrile. Afterwards, the mixtures were centrifuged at 18,407 × g for 5 min, 70 μl of the supernatants was transferred into autosampler vials, and 1 μl was injected onto the LC-HRMS/MS system. Positive control incubations were performed with pHLM (1 mg microsomal protein/ml), and negative controls without enzyme were prepared to identify non-metabolically formed compounds. All incubations were done in duplicate.

[3] = Monooxygenases activity screening, pHLM positive control; assay type: in vitro ADME, human; design: key: +, detected; –: −, not detected; settings: 25 μM 4F-MDMB-BINACA, 1 mg microsomal protein/ml, 30 min, 37°C, duplicate
Procedure: as §1

[4] = target: T2, CYP1A2 (Homo sapiens, UniProt P05177); experiment: Monooxygenases activity screening, CYP1A2; assay type: in vitro ADME; design: key: +, detected; –: −, not detected; settings: 25 μM 4F-MDMB-BINACA, 50 pmol/ml enzyme, 30 min, 37°C, duplicate
T2 construct: purchased Corning; host or cells: baculovirus-transfected insect cell microsomes (Supersomes)
T2 sequence (P05177 1-516): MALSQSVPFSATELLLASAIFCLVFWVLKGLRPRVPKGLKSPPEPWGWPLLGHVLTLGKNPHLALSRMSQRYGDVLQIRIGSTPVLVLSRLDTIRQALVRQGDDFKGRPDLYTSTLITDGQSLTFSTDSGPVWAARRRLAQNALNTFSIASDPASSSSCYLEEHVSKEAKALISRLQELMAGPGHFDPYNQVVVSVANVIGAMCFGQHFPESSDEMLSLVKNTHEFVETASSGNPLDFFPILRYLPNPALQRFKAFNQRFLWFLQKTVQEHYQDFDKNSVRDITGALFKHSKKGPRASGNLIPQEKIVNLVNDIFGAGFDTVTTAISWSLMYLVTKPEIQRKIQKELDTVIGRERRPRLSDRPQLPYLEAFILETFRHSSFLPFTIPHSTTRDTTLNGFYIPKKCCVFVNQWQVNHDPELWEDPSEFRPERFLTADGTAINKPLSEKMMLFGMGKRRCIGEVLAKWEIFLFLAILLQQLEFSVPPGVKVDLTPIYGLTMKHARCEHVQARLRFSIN
Procedure: as §1

[5] = target: T3, CYP2B6 (Homo sapiens, UniProt P20813); experiment: Monooxygenases activity screening, CYP2B6; assay type: in vitro ADME; design: key: +, detected; –: −, not detected; settings: 25 μM 4F-MDMB-BINACA, 50 pmol/ml enzyme, 30 min, 37°C, duplicate
T3 construct: purchased Corning; host or cells: baculovirus-transfected insect cell microsomes (Supersomes)
T3 sequence (P20813 1-491): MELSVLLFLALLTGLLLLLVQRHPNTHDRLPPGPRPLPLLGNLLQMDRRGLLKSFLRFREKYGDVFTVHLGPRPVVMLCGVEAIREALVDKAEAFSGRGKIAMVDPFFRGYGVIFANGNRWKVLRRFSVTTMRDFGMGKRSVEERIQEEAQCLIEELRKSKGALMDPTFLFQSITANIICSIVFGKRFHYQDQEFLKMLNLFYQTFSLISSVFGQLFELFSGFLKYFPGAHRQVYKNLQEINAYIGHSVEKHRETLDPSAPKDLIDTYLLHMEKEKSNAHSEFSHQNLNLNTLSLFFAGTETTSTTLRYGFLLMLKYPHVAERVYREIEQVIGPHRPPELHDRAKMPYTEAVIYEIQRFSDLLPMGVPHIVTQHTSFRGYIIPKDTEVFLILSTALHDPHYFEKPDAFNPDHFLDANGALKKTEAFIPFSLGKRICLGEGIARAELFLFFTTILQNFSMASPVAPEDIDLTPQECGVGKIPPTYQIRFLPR
Procedure: as §1

Structure (SMILES) | Absolute peak area, Zebrafish larvae [25 μM] ([1]; 24 h) | Detection of metabolite in incubation with FMO3 [2] | Detection of metabolite in incubation with pHLM [3] | Detection of metabolite in incubation with CYP1A2 [4] | Detection of metabolite in incubation with CYP2B6 [5] | Number of phase I metabolites detected, Zebrafish larvae ([1]; 25 μM in medium, 24 h) | Number of phase II metabolites detected, Zebrafish larvae ([1]; 25 μM in medium, 24 h) | Relative number of matches with the four most abundant signals in human plasma, Zebrafish larvae ([1]; plasma, larvae exposed to 25 μM) [%] | Relative number of matches with the four most abundant signals in human urine, Zebrafish larvae ([1]; urine, larvae exposed to 25 μM) [%]
COC(=O)[C@@H](NC(=O)c1n[nH]c2ccccc12)C(C)(C)C [MB4] | 7.45E+06 | – | + | + | – |  |  |  | 
COC(=O)[C@@H](NC(=O)c1nn(CCCCO)c2ccccc12)C(C)(C)C [MB11] | 2.92E+06 | – | + | – | – |  |  |  | 
COC(=O)[C@@H](NC(=O)c1nn(CCCCF)c2ccccc12)C(C)(C)CO [MB16] | 5.98E+06 | – | + | – | – |  |  |  | 
COC(=O)C(NC(=O)c1nn(CCCCF)c2ccccc12)C(C)(C)C (centres unmarked) [4F-MDMB-BINACA, methyl 2-[1-(4-fluorobutyl)-1H-indazole-3-carbonyl]amino-3,3-dimethylbutanoate] | 2.89E+09 |  |  |  |  | 14 | 4 | 100 | 75
CC(C)(C)C(NC(=O)c1nn(CCCCF)c2ccccc12)C(=O)O (centres unmarked) [MB8] | 1.73E+07 | – | + | – | – |  |  |  | 
O=C(O)c1nn(CCCCF)c2ccccc12 [MB1] |  | – | + | – | – |  |  |  | 
